The target of assay [1] is T1, Tyrosine-protein phosphatase non-receptor type 7 (Homo sapiens, UniProt P35236).
T1 sequence (P35236 whole entry): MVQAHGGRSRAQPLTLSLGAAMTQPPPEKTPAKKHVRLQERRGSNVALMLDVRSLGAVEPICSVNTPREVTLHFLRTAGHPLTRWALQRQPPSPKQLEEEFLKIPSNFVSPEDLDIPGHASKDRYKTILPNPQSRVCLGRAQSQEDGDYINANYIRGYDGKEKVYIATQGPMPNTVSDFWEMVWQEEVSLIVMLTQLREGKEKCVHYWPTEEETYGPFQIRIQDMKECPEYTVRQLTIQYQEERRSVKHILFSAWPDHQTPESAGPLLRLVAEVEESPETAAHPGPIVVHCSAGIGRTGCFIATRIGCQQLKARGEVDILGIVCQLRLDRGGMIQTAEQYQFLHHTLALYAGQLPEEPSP
As to the kind of experiment: redox-dependent HePTP inhibition, mechanism study, biochemical, fluorescence (AID 2068). In kind it is functional.

Assay [2] deals with HEK293. As to the kind of experiment: NOD1 signaling inhibitors, primary screen, cell-based, luminescence, uHTS (AID 1578). It counts as functional. The following applies: Homo sapiens.
Assay [3] concerns BJ. Description: cytotoxicity toward BJ-TERT fibroblasts, dose response, cell-based, RAS-independent, luminescence (AID 1933). In kind it is functional. The following applies: Homo sapiens.
Assay [4] has as its system HEK293. As to the kind of experiment: cells. In kind it is functional, cell-based. The following applies: Homo sapiens.
The test system of assay [5] is BJ. Description: cells. In kind it is functional, cell-based. The following applies: Homo sapiens.
In assay [6] the test system is HEK293. Description: cells. In kind it is functional, cell-based. The following applies: Homo sapiens. The source holds these as a separate data set.
Assay [7] concerns the target Nucleotide-binding oligomerization domain-containing protein 2 (Homo sapiens, UniProt Q9HC29). As to the kind of experiment: NOD2 signaling inhibitors, cell-based, luminescence, uHTS, HEK293 (AID 1566). In kind it is functional.
Assay [8] concerns HEK293. As to the kind of experiment: NOD2 signaling inhibitors in MDP-stimulated cells, cell-based, uHTS, luminescence (AID 2001). It counts as functional. The following applies: Homo sapiens.
Assay [9] is described as follows: inhibitors of intracellular T. cruzi replication, confirmation, NIH3T3 host cells, beta-gal luminescence (AID 2044).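 Also: intracellular parasites grown in NIH/3T3 mouse fibroblasts as host cells; luminescent beta-galactosidase reporter signal from transgenic T. cruzi replicating inside host cells; inhibitors lower the luminescence signal.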 In kind it is functional, cell-based.
Assay [10] has as its system HEK293. Description: cells. In kind it is functional, cell-based. Particulars: Homo sapiens. The source holds these as a separate data set.
A short description of assay [11]: growth suppression of PTEN-null colon cells, dose response, cell-based, HCT116 PTEN knockout (AID 1047).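 Also: HCT116 colon tumor cells with PTEN knocked out; cells exposed to compound for 60 hours before readout; potency for loss of cell viability measured by luminescence.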 It counts as functional.
The nature of assay [12]: cytotoxicity toward NIH3T3 fibroblasts, dose response, counter-screen, cell-based, ATP luminescence, mouse fibroblasts (AID 2010).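 Also: cells exposed to compound for about 90 hours before reading.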 In kind it is functional.
Assay [13] can be described thus: growth suppression of beta-catenin-knockout colon cells, dose response, cell-based, HCT116, human colon tumor (AID 1045).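 Also: HCT116 colon tumor cells with beta catenin knocked out; cells exposed to compound for 60 hours.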 In kind it is functional.
Assay [14] relates to BJ. As to the kind of experiment: cytotoxicity toward BJ-TERT-LT-ST fibroblasts, dose response, cell-based, RAS-independent, luminescence (AID 1935).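 Also: BJ fibroblasts immortalized with TERT plus LT and ST oncogenes.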 The following applies: Homo sapiens. In kind it is functional.
Assay [15] is described as follows: cytotoxicity toward DRD oncogenic fibroblasts, dose response, cell-based, non-viral oncogenic, luminescence (AID 1934). In kind it is functional. Particulars: Homo sapiens.
Assay [16] in a line: THP-1 cell cytotoxicity, dose response, cytotoxicity control for non-replicating M. tuberculosis project (AID 489025). In kind it is functional.
A short description of assay [17]: HepG2 cell cytotoxicity, dose response, cytotoxicity control for non-replicating M. tuberculosis project (AID 489018). In kind it is functional. Particulars: Mycobacterium tuberculosis.
Assay [18] is described as follows: Vero E6 cell cytotoxicity, dose response, cytotoxicity control for non-replicating M. tuberculosis project, secondary assay (AID 492998). In kind it is functional, VeroE6. The following applies: Vero C1008.
For assay [19], the target named is FAD-linked sulfhydryl oxidase ALR (Homo sapiens, UniProt P55789). As to the kind of experiment: inhibitors of human ALR sulfhydryl oxidase, dose response, biochemical, H2O2 detection, luminescence, cherry-pick (AID 493248).
The nature of a further assay: cells. It counts as functional.
Assay [20] has as its target Heat shock protein HSP 90-alpha (Homo sapiens, UniProt P07900). In kind it is functional, organism-based.
A further assay deals with INS1. Description: beta cell apoptosis inhibitors, cytokine rescue, dose response, luminescence, retest (AID 449756).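 Also: cell death triggered by IL-1 beta plus TNF-alpha plus IFN-gamma mixture; protective hits raise ATP signal compared with cytokine alone wells.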 It counts as functional, cell-based. The following applies: Rattus norvegicus.
A short description of assay [21]: Shn3 3'UTR reporter inhibitors, dose response, cell-based, Clone20 osteoblasts, firefly luciferase, cherry-picked (AID 624132).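 Also: firefly luciferase luminescence from reporter carrying the Shn3 3'UTR in osteoblasts.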 In kind it is functional.
Assay [22] in a line: HepG2 cell cytotoxicity, dose response, cytotoxicity control for Shn3 inhibitor project, CellTiter-Glo, cherry-picked (AID 624134). In kind it is functional, cell-based.
Assay [23] in a line: control 3'UTR Renilla luciferase suppression, dose response, counter-screen for Shn3 inhibitor project, cell-based, Clone20-Shn3RL, cherry-picked (AID 624133). It counts as functional.
Assay [24] addresses T2, Microphthalmia-associated transcription factor (Homo sapiens, UniProt O75030).
T2 sequence (O75030 whole entry): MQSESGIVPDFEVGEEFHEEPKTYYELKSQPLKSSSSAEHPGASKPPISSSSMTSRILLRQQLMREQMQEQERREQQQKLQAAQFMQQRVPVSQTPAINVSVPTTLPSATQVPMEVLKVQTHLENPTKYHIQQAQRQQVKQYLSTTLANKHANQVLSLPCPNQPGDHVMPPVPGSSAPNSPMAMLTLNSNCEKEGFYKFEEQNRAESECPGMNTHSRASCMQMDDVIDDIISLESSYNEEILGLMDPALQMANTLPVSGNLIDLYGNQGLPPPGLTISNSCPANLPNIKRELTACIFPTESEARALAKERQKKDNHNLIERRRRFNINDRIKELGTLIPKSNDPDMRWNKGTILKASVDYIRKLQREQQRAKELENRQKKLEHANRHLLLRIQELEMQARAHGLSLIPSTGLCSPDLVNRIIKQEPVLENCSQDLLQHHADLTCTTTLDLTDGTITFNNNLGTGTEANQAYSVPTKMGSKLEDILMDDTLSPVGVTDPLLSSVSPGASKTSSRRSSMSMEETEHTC
Description: MITF Measured in Cell-Based System Using Plate Reader - 2084-01_Inhibitor_DoseNoFile_CherryPick_Activity_Set2. [Related pubchem assays (depositor defined):AID488944]. In kind it is functional.

Assay [25] deals with T2, Microphthalmia-associated transcription factor. Description: TRPM1 promoter luciferase signal decrease, dose response, MITF inhibitor project, cell-based, SK-MEL-5, cherry-picked, set 4 (AID 493102). In kind it is functional.
For assay [26] the target is unchanged. Description: TRPM1 promoter luciferase signal decrease, dose response, MITF inhibitor project, cell-based, SK-MEL-5, cherry-picked, set 3 (AID 493073). In kind it is functional.
The next assay concerns the target T3, Caspase-3 (Homo sapiens, UniProt P42574).
T3 sequence (P42574 whole entry): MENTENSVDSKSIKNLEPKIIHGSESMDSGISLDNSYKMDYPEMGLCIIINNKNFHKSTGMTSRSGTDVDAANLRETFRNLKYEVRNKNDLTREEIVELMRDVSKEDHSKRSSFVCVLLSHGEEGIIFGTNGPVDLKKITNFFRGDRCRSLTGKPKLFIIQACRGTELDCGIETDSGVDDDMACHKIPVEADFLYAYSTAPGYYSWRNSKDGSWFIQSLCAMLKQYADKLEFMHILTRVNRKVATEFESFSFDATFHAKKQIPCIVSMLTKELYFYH
Description: procaspase-3 activators, dose response, biochemical, absorbance (AID 489014).

A further assay has as its target Caspase-7 (Homo sapiens, UniProt P55210). Description: procaspase-7 activators, dose response, counter-screen for procaspase-3 activator project, biochemical, absorbance (AID 489013).

Active and inactive are the calls of the source.

Sequence of Nucleotide-binding oligomerization domain-containing protein 2 (Q9HC29 whole entry, the tested form may be a part): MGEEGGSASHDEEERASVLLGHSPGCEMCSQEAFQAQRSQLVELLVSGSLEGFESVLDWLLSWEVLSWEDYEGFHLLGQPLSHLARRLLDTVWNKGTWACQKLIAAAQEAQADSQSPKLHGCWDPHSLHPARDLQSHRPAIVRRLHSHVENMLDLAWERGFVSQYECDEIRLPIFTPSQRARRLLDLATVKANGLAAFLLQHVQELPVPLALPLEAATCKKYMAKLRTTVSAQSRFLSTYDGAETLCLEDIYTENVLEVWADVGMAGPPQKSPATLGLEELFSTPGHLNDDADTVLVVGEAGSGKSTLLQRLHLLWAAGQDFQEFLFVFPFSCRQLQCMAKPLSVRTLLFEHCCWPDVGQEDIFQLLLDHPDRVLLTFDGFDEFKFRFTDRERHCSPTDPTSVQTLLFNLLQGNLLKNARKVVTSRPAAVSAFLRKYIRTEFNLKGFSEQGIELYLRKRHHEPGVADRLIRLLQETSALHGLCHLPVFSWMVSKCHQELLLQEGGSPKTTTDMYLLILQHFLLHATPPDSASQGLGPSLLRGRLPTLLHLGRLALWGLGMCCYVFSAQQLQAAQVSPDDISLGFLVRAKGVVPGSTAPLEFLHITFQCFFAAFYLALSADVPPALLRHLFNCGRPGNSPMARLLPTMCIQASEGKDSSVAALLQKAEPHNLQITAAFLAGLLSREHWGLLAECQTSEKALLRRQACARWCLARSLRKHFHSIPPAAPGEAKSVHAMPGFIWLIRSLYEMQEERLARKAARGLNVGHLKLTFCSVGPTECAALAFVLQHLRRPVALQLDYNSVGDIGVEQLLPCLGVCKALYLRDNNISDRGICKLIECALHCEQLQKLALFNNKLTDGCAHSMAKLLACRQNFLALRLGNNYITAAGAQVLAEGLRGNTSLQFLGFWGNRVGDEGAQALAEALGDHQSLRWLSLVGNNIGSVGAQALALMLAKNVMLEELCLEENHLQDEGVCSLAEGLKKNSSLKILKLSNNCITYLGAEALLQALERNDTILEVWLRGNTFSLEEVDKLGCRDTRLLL
Sequence of Caspase-7 (P55210 24-198 limits assumed): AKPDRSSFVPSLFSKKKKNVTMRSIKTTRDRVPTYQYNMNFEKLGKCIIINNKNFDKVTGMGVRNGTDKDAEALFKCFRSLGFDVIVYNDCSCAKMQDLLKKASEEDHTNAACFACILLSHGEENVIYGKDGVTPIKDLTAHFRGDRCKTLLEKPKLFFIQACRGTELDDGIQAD
Sequence of Caspase-7 (P55210 207-303 limits assumed): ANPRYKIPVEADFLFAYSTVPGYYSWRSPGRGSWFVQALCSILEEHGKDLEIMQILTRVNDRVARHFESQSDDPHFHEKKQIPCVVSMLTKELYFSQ
Sequence of FAD-linked sulfhydryl oxidase ALR (P55789 whole entry): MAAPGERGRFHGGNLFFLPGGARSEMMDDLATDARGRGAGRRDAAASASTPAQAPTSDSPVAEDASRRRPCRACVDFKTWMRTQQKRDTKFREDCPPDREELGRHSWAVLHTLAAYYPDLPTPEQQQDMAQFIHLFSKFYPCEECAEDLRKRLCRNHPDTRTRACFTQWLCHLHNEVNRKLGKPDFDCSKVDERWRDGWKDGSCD

For `CC1CCN(C(=O)Nc2ccc3nc(-c4ccco4)c(-c4ccco4)nc3c2)CC1`, the IC50 in [1] was 0.84 µM (active).

For `O=S1(=O)C=C(Sc2nnc(-c3ccccc3)o2)c2ccccc21`, the EC50 was > 20 µM (inactive) with HEK293 [2]; 1.48 µM (active) in the assay on BJ [3]; 7.16 µM (inconclusive) with BJ [5]; > 20 µM (inactive) in assay [7]; 0.941 µM (active) in assay [9]; 2.38 µM (active) in assay [11]. Moreover, the EC50 was 2.33 µM (active) in assay [12], 2.8 µM (active) in [13], 2.8 µM (inconclusive) with BJ [14] and 4.19 µM (active) in [15]. The IC50 in the assay with HEK293 [4] is 5.52 µM (active); in the assay with HEK293 [6] it was > 20 µM (inactive); with HEK293 [8] it was 6.48 µM (inactive); in the assay with HEK293 [10], > 20 µM (inactive); in “cells” it was 1.13 µM (active). In addition, the CC50 in [16] was 6.02 µM (active); in assay [17] it was 18.5 µM (active); in [18], 2.87 µM (active). For the same compound, the concentration at half-maximal activity (AC50) in [19] is 0.281 µM (active); in assay [20] it was 2.9 µM (active); with INS1, 7.3 µM (active); in assay [21], 1.7 µM (active); in [22], 8.89 µM (active); in assay [23], 4 µM (active).

Consider `CN(C)Cc1c(O)ccc2c1O/C(=C\C=C\c1ccccc1)C2=O`, for which the AC50 in [24], in assay [25] and in assay [26] was > 350 µM (inactive) in each case.

With `Cc1ccc(C)c(N(CC(=O)Nc2ccc(-c3nc4ccc(C)cc4s3)cc2)S(C)(=O)=O)c1`, the half-maximal effective concentration (EC50) in assay [9] is 2.78 µM (active); in assay [12] it was > 60 µM (inconclusive); at Caspase-3, > 85.2 µM (inactive); at Caspase-7, > 85.2 µM (inactive).

For the origin of these results see ChEMBL document CHEMBL1201862, “PubChem BioAssay data set” (2004).
